The test system of this assay is Hep G2 hepatoma cells. Put plainly: Drymifolia leaf extract bioassay: cholesterol secretion by hepatoma cells (AMPLEX RED cholesterol kit). It counts as cell-based. Particulars: for activity at 25 µg/mL: HepG2, Conc. 25 μg/ml. On the procedure: To measure cholesterol secretion by hepatoma cells following treatment by drymifolia leaf extract prepared in accordance with the present invention, a bioassay was performed. Samples for the bioassay were prepared by weighing out 100 mg of the spray dried powders of drymifolia leaf extracts. A 50 mg/ml total extract of the sample was then prepared by sequential addition of DMSO:ethanol:water in a ratio of 5:3:2. For example, for 100 mg of powder, 1 ml DMSO, 0.6 ml ethanol, and 0.4 ml water would be used. To prepare dilutions of sample for testing, the samples were diluted from the stock concentration of 50 mg/ml to test concentrations (i.e. 400, 200, 100 μg/ml) in tissue culture media. For the 400 μg/ml concentration, 8 μl of stock solution added to 992 μl tissue culture media would yield 400 μg/ml. From there, serial two fold dilutions would result in the remaining test concentration. Hep G2 hepatoma cells (ATCC, Manassas, Va.) were plated at 2×10^5/well in standard 24 well tissue culture plates. Following plating, the cells were incubated overnight. The next day, the media in the wells was aspirated and replaced with fresh media containing the diluted sample. Stock solutions of the samples were prepared as total extracts at 50 mg/ml. The samples were then diluted in tissue culture media just prior to adding to the cells. The cells were again incubated overnight with the samples. Then, the supernatant fluids were tested for the presence of cholesterol using the AMPLEX RED cholesterol kit (Molecular Probes, Eugene, Oreg.). The kit measures total cholesterol in the supernatants following enzymatic conversion of any cholesterol esters to free cholesterol using cholesterol esterase. The effect of the samples is calculated by dividing the mean relative fluorescence derived from the test samples by the mean relative fluorescence of untreated controls.
LIPITOR® and pure rutin samples were prepared in the same manner as the drymifolia leaf extract in the bioassay. The drymifolia leaf extract samples performed as well as or better than LIPITOR®. […] Pure rutin in the amount equivalent to the amount found in the lots 3193, 3194, 3811, and 3831 was tested. More specifically, the amount of rutin found in the lots was 3.44 mg/g, 4.36 mg/g, 4.42 mg/g and 4.13 mg/g, respectively. At the highest concentration of the drymifolia leaf extract samples tested (which was 400 ug/ml), there could be up to 25 ug/ml of rutin. Thus, the amount of pure rutin used in the bioassay was 3.125 to 25 ug/ml. […]

[1] abbreviates: Homo sapiens, read-out: % ctrl (cholesterol release).

The source of these data is US20050208163A1, “Compositions containing avocado leaf extract for lowering cholesterol levels” (priority 2002, published 2005).

Consider `CC(C)c1c(C(=O)Nc2ccccc2)c(-c2ccccc2)c(-c2ccc(F)cc2)n1CC[C@@H](O)C[C@@H](O)CC(=O)O` [LIPITOR ®, atorvastatin], for which the “Mean (relative fluorescence, cholesterol release)” value is, setting by setting: (Conc. 25 μg/ml) 18308.5; (Conc. 50 μg/ml) 18591; (Conc. 100 μg/ml) 16871.5; (Conc. 200 μg/ml) 16378. Moreover, the activity at 25 µg/mL under setting [1] was 99.2%. The activity at 50 µg/mL (Homo sapiens, HepG2, Conc. 50 μg/ml, read-out: % ctrl (cholesterol release)) was 101%. Moreover, for the setting “Homo sapiens, HepG2, Conc. 100 μg/ml, read-out: % ctrl (cholesterol release)”, the activity at 100 µg/mL is 91.5%. Also, the activity at 200 µg/mL (Homo sapiens, HepG2, Conc. 200 μg/ml, read-out: % ctrl (cholesterol release)) was 88.8%.
On to `C[C@@H]1O[C@@H](OC[C@H]2O[C@@H](Oc3c(-c4ccc(O)c(O)c4)oc4cc(O)cc(O)c4c3=O)[C@H](O)[C@@H](O)[C@@H]2O)[C@H](O)[C@H](O)[C@H]1O` [Pure Rutin, rutin], for which the “Mean (relative fluorescence, cholesterol release)” value is reported as 18609.5 (Conc. 3.125 μg/ml), 19069 (Conc. 6.25 μg/ml), 17835 (Conc. 12.5 μg/ml) and 16817.5 (Conc. 25 μg/ml). Moreover, the activity at 3.125 µg/mL (Homo sapiens, HepG2, Conc. 3.125 μg/ml, read-out: % ctrl (cholesterol release)) was 101%. For the same molecule, under “Homo sapiens, HepG2, Conc. 6.25 μg/ml, read-out: % ctrl (cholesterol release)”, the activity at 6.25 µg/mL is 103%. Further, the activity at 12.5 µg/mL (Homo sapiens, HepG2, Conc. 12.5 μg/ml, read-out: % ctrl (cholesterol release)) is 96.7%. In addition, the activity at 25 µg/mL under setting [1] was 91.2%.
